Assays:
[1] = target: T1, Estrogen receptor (Homo sapiens) (UniProt P03372); assay: Inhibition of fluorescence-labeled 17beta-estradiol binding to ERalpha receptor at 5 mM after 2 hrs by fluorometric analysis
T1 sequence (whole entry): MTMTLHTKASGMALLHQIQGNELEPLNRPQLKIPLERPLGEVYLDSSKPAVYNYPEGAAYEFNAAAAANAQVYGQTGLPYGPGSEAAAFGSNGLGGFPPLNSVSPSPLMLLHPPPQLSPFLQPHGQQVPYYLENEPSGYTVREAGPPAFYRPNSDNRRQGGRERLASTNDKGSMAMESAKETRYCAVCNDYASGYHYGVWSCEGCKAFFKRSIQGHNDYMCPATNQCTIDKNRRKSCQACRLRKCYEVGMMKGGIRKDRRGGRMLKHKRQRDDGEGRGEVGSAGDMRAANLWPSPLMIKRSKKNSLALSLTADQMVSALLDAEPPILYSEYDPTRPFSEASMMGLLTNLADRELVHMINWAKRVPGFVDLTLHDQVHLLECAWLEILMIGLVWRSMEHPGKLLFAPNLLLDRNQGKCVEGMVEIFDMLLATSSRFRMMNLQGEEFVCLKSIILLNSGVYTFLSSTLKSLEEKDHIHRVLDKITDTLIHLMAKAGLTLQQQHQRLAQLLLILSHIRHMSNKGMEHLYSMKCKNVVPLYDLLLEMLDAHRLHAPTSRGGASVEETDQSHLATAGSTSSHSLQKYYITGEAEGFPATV

Estrogen receptor = target: T2, Estrogen receptor (Homo sapiens, UniProt P03372)
T2 sequence (P03372 whole entry): T1 sequence (whole entry)
Description: Inhibition of fluorescence-labeled 17beta-estradiol binding to ERalpha receptor after 2 hrs by fluorometric analysis

| Compound | inhibition [1] [%] | IC50 (Estrogen receptor) [mM] |
| --- | --- | --- |
| COc1ccc2c(c1)OC[C@]1(O)c3cc4c(cc3O[C@H]21)OCO4 | 36.2 | > 5 |
| C=C1CC[C@@H](O)[C@]2(C)CC[C@@](O)(C(C)C)[C@H](O)[C@@H]12 | 67.3 | 2.8 |

More lines, in order of falling IC50 (Estrogen receptor), values ahead:

| inhibition [1] [%] | IC50 (Estrogen receptor) [mM] | Compound |
| --- | --- | --- |
| 70.1 | 3.5 | COc1cc(O)c(/C=C\C(C)(C)O)c2c1C(=O)C[C@@H](c1ccccc1)O2 [TEPHROCANDIDIN A] |
| 86.2 | 1 | COc1cc(O)c(/C=C\C(C)(C)O)c2c1C(=O)CC(c1ccc(O)cc1)O2 (stereo not given) [TEPHROCANDIDIN B] |
| 95.1 | 0.08 | COc1cc(O)c(/C=C\C(C)(C)O)c(O)c1C(=O)/C=C/c1ccc(O)cc1 [CANDIDACHALCONE] |
